{"source": "patent US6916915B1", "about": "“Stressor regulated genes” (Duke University, priority 1998, dated 2005)", "key": {"C. elegans [1]": {"test_system": "C. elegans", "experiment": "Northern blot analysis of steady-state mRNA levels after cadmium exposure", "type": "in vivo, Caenorhabditis elegans", "conditions": "for Fold-change in mRNA levels following cadmium exposure, VL1 (Northern blot): clone VL1 (mtl-1)", "description": "(§1) Growth and isolation of C. elegans—The N2 strain of C. elegans was grown in liquid S medium (0.1M NaCl, 50 mM potassium phosphate, pH 6.0, 5 μg/ml cholesterol, 10 mM potassium citrate, 3 mM CaCl2, 3 mM MgCl2, 50 μM EDTA, 25 μM FeSO4, 10 μM MnCl2, 10 μM ZnSO4 and 1 μM CuSO4) using E. coli OP50 as a food source (Brenner, S. (1974) Genetics 77, 71-94). In experiments where nematodes were exposed to cadmium, the medium was supplemented with 100 μM CdCl2 (Freedman, J. H. et al. (1993) J. Biol. Chem. 268, 2554-2564). C. elegans were grown in the presence of metal for 8 h or 24 h at ˜20° C. Nematodes were then collected following centrifugation at 800×g for 5 min. Pellets were suspended in 5 mM NaCl containing 35% sucrose (final concentration) and viable nematodes were collected from the top of the solution following centrifugation at 1000×g for 5 min at 4° C. Nematodes were then washed three times by suspension in M9 buffer (22 mM KH2PO4, 42 mM Na2HPO4, 85 mM NaCl, 1 mM MgSO4) followed by sedimentation at 800×g. Washed nematode pellets were finally suspended in a small volume of M9 buffer, rapidly frozen in liquid nitrogen and stored at −80° C.\nRNA isolation—Total RNA was isolated from mix-stage populations of C. elegans exposed to 100 μM CdCl2 for 8 h and 24 h and control, non-exposed nematodes. Frozen worms were first ground into a fine powder using a liquid nitrogen-cooled mortar and pestle. Powdered C. elegans (200 mg) were then homogenized in 2 ml of TRIzol (GIBCO/BRL). RNA was then collected from the aqueous phase following the addition of chloroform, precipitated by adding isopropyl alcohol and then air-dried. The dried RNA pellet was then dissolved in diethyl pyrocarbonate (DEPC)-treated water. For some experiments, poly(A^+) RNA was subsequently isolated using the Poly(A) Tract System following manufacturer's instructions (Promega).\nNorthern Blot Analysis-Samples of total RNA (20 μg) or poly(A^+) RNA (2 μg) were denatured in a 2.2M formaldehyde/50% (v/v) formamide buffer and then subjected to denaturing gel electrophoresis on a 1.5% agarose/2.2M formaldehyde gel. Size-fractionated RNAs were then transferred to Nytran membrane (Schleicher and Schuell). Membranes were probed with ^32P-labeled cDNA fragments of the differentially expressed mRNAs. cDNAs to be used as probes were generated by the PCR from the cloned DNA fragments recovered from differential display gels. cDNAs were labeled with [α-^32]dCTP (Amersham) by random-primed labeling. Membranes were hybridized in 6 ×SSC (1×SSC=0.15M sodium chloride, 15 mM sodium citrate, pH 7.0), 1.25× Denhardt's solution, 0.5% sodium dodecyl sulfate (SDS), 300 ng denatured sonicated salmon sperm DNA and heat-denatured probe at 42° C. for 16 h. Following hybridization, membranes were washed at a high stringency of 50° C. for 30 min in 0.1×SSC/0.1% SDS. The amount of probe hybridizing to the RNA was determined by PhosphorImager analysis (Molecular Dynamic System) . After images were obtained, membranes were incubated at 95° C. for 1 h in 0.1% SDS to remove the bound probe. They were then hybridized with a ^32P-labeled C. elegans myosin light-chain probe, which served as a loading control (Freedman, J. H. et al. (1993) J. Biol. Chem. 268, 2554-2564). As a positive control, membranes were also hybridized to a ^32P-labeled C. elegans metallothonein-2 (mtl-2) cDNA probe (Freedman, J. H. et al. (1993) J. Biol. Chem. 268, 2554-2564). Quantification of radioactivity was performed using the ImageQuant program (Molecular Dynamic System). Steady-state levels of mRNA expression were all normalized to that of the constitutively expressed myosin light-chain mRNAs (Freedman, J. H. et al. (1993) J. Biol. Chem. 268, 2554-2564; Cummins, C. et al. (198B) Mol. Cell. Biol 8, 5334-5349)."}, "C. elegans [2]": {"test_system": "C. elegans", "experiment": "mRNA differential display of control and cadmium-treated nematodes", "type": "in vivo, Caenorhabditis elegans", "conditions": "cadmium-treated C. elegans cDNA compared to the control", "description": "as §1\nRNA isolation—Total RNA was isolated from mix-stage populations of C. elegans exposed to 100 μM CdCl2 for 8 h and 24 h and control, non-exposed nematodes. […]"}}, "note": "“And” between values parts separate entries of the source, which are not always exact repeats. Identical values can stand only once.", "data": [{"compound": "[Cl][Cd][Cl]", "note": "[cadmium, CdCl2]", "values": [{"measurement": "steady-state level of mtl-2 mRNA", "setting": "C. elegans [1]; 100 μM CdCl2 for 24 h vs control C. elegans", "result": "increased"}, {"measurement": "Fold-change in mRNA levels following cadmium exposure, DDRT16 (Northern blot)", "setting": "C. elegans [1]; clone DDRT16, 24 hours, 100 μM CdCl2, value in parenthesis, by Northern blot", "result": 3.5, "unit": "fold"}, {"measurement": "Fold-change in mRNA levels following cadmium exposure, VL1 (Northern blot)", "setting": "C. elegans [1]; 8 hours, 100 μM CdCl2, value in parenthesis, by Northern blot", "result": "(4.7) fold"}, {"measurement": "Fold-change in mRNA levels following cadmium exposure, VL1 (Northern blot)", "setting": "C. elegans [1]; 24 hours, 100 μM CdCl2, value in parenthesis, by Northern blot", "result": "(5.2) fold"}, {"measurement": "Fold-change in mRNA levels following cadmium exposure, VL19 (Northern blot)", "setting": "C. elegans [1]; clone VL19, 24 hours, 100 μM CdCl2, value in parenthesis, by Northern blot", "result": 2.3, "unit": "fold"}, {"measurement": "Fold-change in mRNA levels following cadmium exposure, VL21 (Northern blot)", "setting": "C. elegans [1]; clone VL21, 24 hours, 100 μM CdCl2, value in parenthesis, by Northern blot", "result": "2 fold and 2.0 fold"}, {"measurement": "band intensity of VL9 cDNA in differential display", "setting": "C. elegans [2]", "result": "decreased band intensity"}]}]}
